Where two headings read alike, the source gives them in different places.
What was measured:
[1] = test system: KM12-TPM3/trkA_G667C cells; assay: growth inhibition screen, KM12 mutant cells with G667C; format: cell-based, human
Procedure: (§1) Each treatment condition was performed in duplicate.
(§2) In this experiment, each of the following cell lines: Ba/F3-tel/trkA, Ba/F3-tel/trkA-10nMA (G595R), KM12-DMSO, KM12-30nM101-B (G667C), KM12-100nM101-B (G667C), KM12-300nM101-B (G595R) was screened against a number of chemical compounds.

[2] = test system: KM12-TPM3/trkA_G595R cells; assay: growth inhibition screen, KM12 mutant cells with G595R; format: cell-based, human
Procedure: as §1, §2

[3] = test system: parental KM12 cells (KM12-DMSO; KM12-TPM3/trkA_WT); assay: growth inhibition (CellTiter-Glo, 3 days), parental KM12 cells cultured in DMSO
[4] = test system: mutant cells harboring the TrkA-G595C mutation or the TrkA-G667C mutation; assay: screen for inhibition of proliferation of mutant KM12 and Ba/F3-tel/trkA cells; format: cell-based
Procedure: as §1, §2

BaF3-tel/trkA_WT cells = biological target: T1, BaF3-tel/trkA_WT cells (Homo sapiens, UniProt P04629); assay: growth inhibition, parental Ba/F3-tel/trkA cells; format: cell-based, murine
T1 construct: Input Ba/F3-Tel/TrkA cell line was an engineered cell line harboring a recombinant TrkA fusion gene ETV6-TrkA; fused on or other part: P41212 (Transcription factor ETV6)
Procedure: (§3) Input Ba/F3-Tel/TrkA cell line was an engineered cell line harboring a recombinant TrkA fusion gene ETV6-TrkA. […] Cell viability was evaluated by trypan blue and counted every two days (FIG. 9).
as §1, §2

[5] = biological target: T2, BaF3-tel/trkA-10 nMA(G595R) cells (Homo sapiens, UniProt P04629, G595R, cells depend on it); format: cell-based, murine; settings: BaF3-tel/trkA_G595R
T2 construct: IC50; other: BaF3-tel/trkA-10 nMA(G595R); fused on or other part: P41212 (Transcription factor ETV6)
Procedure: as §3, §1, §2

BaF3-tel/trkB cells = biological target: T3, BaF3-tel/trkB cells (Homo sapiens, UniProt Q16620); assay: growth inhibition, Ba/F3-tel/trkB cells; format: cell-based, murine; settings: read-out: IC50, Table 9
T3 construct: fused on or other part: P41212 (Transcription factor ETV6)

KM12-1 nM A cells = assay: cells; settings: Homo sapiens
Procedure: as §1

KM12-10 nM A cells = assay: cells; settings: Homo sapiens
Procedure: as §1

KM12-100 nM A cells = assay: cells; settings: Homo sapiens
Procedure: as §1

[6] = test system: KM12-100 nM-B (no drug) cells; assay: cells; settings: Homo sapiens
Procedure: as §1

KM12-100 nM-B cells = assay: cells; settings: Homo sapiens
Procedure: as §1

KM12-3 nM A cells = assay: cells; settings: Homo sapiens
Procedure: as §1

KM12-30 nM A cells = assay: cells; settings: for IC50: Homo sapiens
Procedure: as §1

KM12-30 nM-B cells = assay: cells; settings: Homo sapiens
Procedure: as §1

KM12-300 nM-B cells = assay: cells; settings: Homo sapiens
Procedure: as §1

[7] = test system: BaF3-tel/trkA-10 nMA(G595R) cells; format: cell-based, murine
Procedure: as §3, §1, §2

BaF3-tel/trkC cells = biological target: T4, BaF3-tel/trkC cells (Homo sapiens, UniProt Q16288); assay: growth inhibition, Ba/F3-tel/trkC cells; format: cell-based, murine
T4 construct: fused on or other part: P41212 (Transcription factor ETV6)

[8] = Homo sapiens, KM12-TPM3/trkA_G667C, Table 8, in μM, read-out: IC50
[9] = Homo sapiens, KM12-TPM3/trkA_G595R, Table 8, in μM, read-out: IC50
[10] = Table 9, read-out: IC50 (the source's name)
[11] = Table 8, in μM, read-out: IC50 (the source's name)
[12] = Table 8, cells without unit, read-out: IC50 (the source's name)

T1 sequence (P04629 whole entry, change not shown, the tested form may be a part): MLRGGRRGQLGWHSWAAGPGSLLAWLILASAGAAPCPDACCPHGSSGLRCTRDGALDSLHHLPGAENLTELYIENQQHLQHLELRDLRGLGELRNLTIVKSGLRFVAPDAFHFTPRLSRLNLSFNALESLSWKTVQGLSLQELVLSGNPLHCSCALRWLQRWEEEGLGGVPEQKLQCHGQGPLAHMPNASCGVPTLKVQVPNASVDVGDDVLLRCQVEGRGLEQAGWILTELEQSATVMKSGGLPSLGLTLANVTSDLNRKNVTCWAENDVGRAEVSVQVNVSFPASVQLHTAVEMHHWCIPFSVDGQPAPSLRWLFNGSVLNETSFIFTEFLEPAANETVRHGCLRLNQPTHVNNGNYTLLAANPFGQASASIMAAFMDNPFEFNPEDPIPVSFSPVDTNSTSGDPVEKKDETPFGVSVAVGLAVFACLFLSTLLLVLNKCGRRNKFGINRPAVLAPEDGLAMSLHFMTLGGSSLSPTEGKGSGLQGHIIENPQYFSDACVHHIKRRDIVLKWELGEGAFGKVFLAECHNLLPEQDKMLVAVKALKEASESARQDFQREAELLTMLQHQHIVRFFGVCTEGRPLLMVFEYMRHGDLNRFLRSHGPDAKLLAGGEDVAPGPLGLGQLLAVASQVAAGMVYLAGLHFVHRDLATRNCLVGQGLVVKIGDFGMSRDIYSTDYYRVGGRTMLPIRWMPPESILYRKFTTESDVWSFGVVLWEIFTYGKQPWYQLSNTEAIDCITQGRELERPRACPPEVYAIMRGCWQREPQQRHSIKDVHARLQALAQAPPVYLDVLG
T3 sequence (Q16620 whole entry, change not shown, the tested form may be a part): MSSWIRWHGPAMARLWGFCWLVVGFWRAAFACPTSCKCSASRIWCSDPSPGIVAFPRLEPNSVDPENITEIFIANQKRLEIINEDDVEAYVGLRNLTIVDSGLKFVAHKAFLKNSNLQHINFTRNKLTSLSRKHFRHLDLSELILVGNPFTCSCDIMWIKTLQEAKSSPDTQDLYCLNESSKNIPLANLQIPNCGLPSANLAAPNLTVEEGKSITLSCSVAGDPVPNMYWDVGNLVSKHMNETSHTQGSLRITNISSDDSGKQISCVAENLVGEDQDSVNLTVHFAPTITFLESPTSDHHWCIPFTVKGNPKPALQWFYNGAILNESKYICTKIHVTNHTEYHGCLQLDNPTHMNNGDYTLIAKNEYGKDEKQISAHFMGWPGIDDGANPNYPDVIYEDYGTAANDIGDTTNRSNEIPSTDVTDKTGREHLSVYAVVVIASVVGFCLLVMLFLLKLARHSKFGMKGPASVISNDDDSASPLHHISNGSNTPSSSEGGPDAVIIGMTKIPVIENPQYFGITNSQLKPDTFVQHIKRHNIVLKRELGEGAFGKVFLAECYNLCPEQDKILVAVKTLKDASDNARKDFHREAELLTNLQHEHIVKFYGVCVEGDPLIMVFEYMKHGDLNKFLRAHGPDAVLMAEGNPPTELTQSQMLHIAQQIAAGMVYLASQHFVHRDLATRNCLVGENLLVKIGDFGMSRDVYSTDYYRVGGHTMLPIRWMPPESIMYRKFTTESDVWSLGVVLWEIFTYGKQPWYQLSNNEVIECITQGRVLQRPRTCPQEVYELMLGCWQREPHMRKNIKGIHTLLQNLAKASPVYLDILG
T2 sequence (P04629 whole entry G595R, the tested form may be a part): as the sequence (P04629 whole entry, change not shown, the tested form may be a part) above, with G595R counted along it
T4 sequence (Q16288 whole entry, change not shown, the tested form may be a part): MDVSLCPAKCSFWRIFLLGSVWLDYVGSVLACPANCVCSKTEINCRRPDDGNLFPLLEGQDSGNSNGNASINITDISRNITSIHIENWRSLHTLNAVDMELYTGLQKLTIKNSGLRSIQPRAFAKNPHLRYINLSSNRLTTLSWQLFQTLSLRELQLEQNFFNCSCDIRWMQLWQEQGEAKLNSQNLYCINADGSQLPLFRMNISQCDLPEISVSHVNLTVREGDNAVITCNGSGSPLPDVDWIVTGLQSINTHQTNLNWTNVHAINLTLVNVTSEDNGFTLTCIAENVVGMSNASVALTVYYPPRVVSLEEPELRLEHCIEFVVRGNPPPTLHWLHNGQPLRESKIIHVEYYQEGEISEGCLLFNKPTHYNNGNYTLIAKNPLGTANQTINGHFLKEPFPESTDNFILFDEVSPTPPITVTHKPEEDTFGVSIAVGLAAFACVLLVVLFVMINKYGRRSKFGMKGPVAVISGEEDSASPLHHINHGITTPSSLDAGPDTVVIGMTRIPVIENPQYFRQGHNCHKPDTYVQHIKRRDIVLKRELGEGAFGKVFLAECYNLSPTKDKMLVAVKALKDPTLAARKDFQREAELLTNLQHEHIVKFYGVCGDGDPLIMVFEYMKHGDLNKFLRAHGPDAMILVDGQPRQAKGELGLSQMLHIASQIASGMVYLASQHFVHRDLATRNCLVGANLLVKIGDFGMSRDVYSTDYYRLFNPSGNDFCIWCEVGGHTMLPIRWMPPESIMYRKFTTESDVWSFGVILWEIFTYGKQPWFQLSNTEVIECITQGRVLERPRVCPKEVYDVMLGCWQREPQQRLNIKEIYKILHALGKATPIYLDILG

## O=C(Nc1cnn2ccc(N3CCC[C@@H]3c3cc(F)ccc3F)nc12)N1CC[C@H](O)C1 [LOXO-101, (3S)-N-[5-[(2R)-2-(2,5-difluorophenyl)-1-pyrrolidinyl]pyrazolo[1,5-a]pyrimidin-3-yl]-3-hydroxy-1-pyrrolidinecarboxamide]
[1]; [8]
  IC50: > 1 µM
[2]; [9]
  IC50: > 1 µM
[3]; Homo sapiens, KM12
  IC50: 27 nM

## CNC(=O)c1cc(Oc2ccc(NC(=O)Nc3cc(C(C)(C)C)nn3-c3ccc4ncccc4c3)c(F)c2)ccn1 [rebastinib, 4-[4-[(5-tert-butyl-2-quinolin-6-ylpyrazol-3-yl)carbamoylamino]-3-fluorophenoxy]-N-methylpyridine-2-carboxamide]
[4]
  inhibitory activity against mutant cells: significant inhibitory activity

## COc1cc(N2CCC(N3CCN(C)CC3)CC2)ccc1Nc1ncc(Cl)c(Nc2ccccc2S(=O)(=O)C(C)C)n1 [NVP-TAE684, 5-chloro-N2-[2-methoxy-4-[4-(4-methyl-1-piperazinyl)-1-piperidinyl]phenyl]-N4-[2-[(1-methylethyl)sulfonyl]phenyl]-2,4-Pyrimidinediamine]
[4]
  inhibitory activity against mutant cells: significant inhibitory activity

## C[C@H]1Oc2cc(cnc2N)-c2c(nn(C)c2C#N)CN(C)C(=O)c2ccc(F)cc21 [PF06463922, (10R)-7-amino-12-fluoro-10,15,16,17-tetrahydro-2,10,16-trimethyl-15-oxo-2H-4,8-Methenopyrazolo[4,3-h][2,5,11]benzoxadiazacyclotetradecine-3-carbonitrile]
[1]; Homo sapiens, KM12
  IC50: > 1 µM
[2]; Homo sapiens, KM12
  IC50: > 1 µM
BaF3-tel/trkA_WT cells; read-out: IC50, Table 8, cells without unit
  GI50: 0.386 µM
[5]; read-out: IC50, Table 8, in μM
  GI50: > 1 µM
[3]; Homo sapiens, KM12
  IC50: 206 nM

## CN[C@@H]1C[C@H]2O[C@@](C)([C@@H]1OC)n1c3ccccc3c3c4c(c5c6ccccc6n2c5c31)C(=O)NC4 [Staurosporine, 9,13-Epoxy-1H,9H-diindolo[1,2,3-gh:3′,2′,1′-lm]pyrrolo[3,4-j][1,7]benzodiazonin-1-one, 2,3,10,11,12,13-hexahydro-10-methoxy-9-methyl-11-(methylamino)-, (9S,10R,11R,13R)-]
BaF3-tel/trkB cells
  GI50: 4.2 nM

## CN1CCN(c2ccc(C(=O)Nc3n[nH]c4ccc(Cc5cc(F)cc(F)c5)cc34)c(NC3CCOCC3)c2)CC1 [entrectinib, N-[5-(3,5-difluorobenzyl)-1H-indazol-3-yl]-4-(4-methyl-piperazin-1-yl)-2-(tetrahydro-pyran-4-ylamino)-benzamide]
KM12-1 nM A cells; KM12
  IC50: 4.19 nM
KM12-1 nM A cells; KM12, 72 h
  IC50: 1.57 nM
KM12-10 nM A cells; KM12
  IC50: 4.65 nM
KM12-10 nM A cells; KM12, 72 h
  IC50: 1.71 nM
KM12-100 nM A cells
  IC50: 6.62 nM
[6]
  IC50: 85.4 nM
KM12-100 nM-B cells
  IC50: 70.4 nM
KM12-3 nM A cells; KM12
  IC50: 4.36 nM
KM12-3 nM A cells; KM12, 72 h
  IC50: 1.64 nM
KM12-30 nM A cells; KM12
  IC50: 6.47 nM
KM12-30 nM A cells; KM12, 72 h
  IC50: 3.41 nM
KM12-30 nM A cells; KM12-30 nM-A treated cells versus cells cultured in DMSO and 1-10 nM entrectinib
  increase of IC50 value: ~2 fold
KM12-30 nM-B cells
  IC50: 93.8 nM
KM12-300 nM-B cells
  IC50: 209 nM
[1]; Homo sapiens, KM12
  IC50: 0.367 µM
[7]
  IC50 higher than that of the control parental line: > 100 fold
BaF3-tel/trkB cells
  GI50: 8.7 nM
BaF3-tel/trkC cells; [10]
  GI50: 5.5 nM
[4]
  inhibitory activity against mutant cells: significant inhibitory activity
[3]; Homo sapiens, KM12, 72 h, KM12-DMSO-A, 3-day growth inhibition, Table 3
  IC50: 1.26 nM
[3]; Homo sapiens, KM12, 672 h, KM12-DMSO, Table 4, after about 4 weeks of increased entrectinib in Set A
  IC50: 3.95 nM
[3]; Homo sapiens, KM12, KM12-DMSO-B, Table 5
  IC50: 1.14 nM
[3]; Homo sapiens, KM12, KM12-TPM3/trkA_WT, Table 8, cells without unit
  IC50: 3.4 nM

## CC(C)Oc1cc(Nc2nc(N[C@@H](C)c3ccc(F)cn3)ncc2Cl)n[nH]1 [AZ-23, 5-chloro-2-N-[(1S)-1-(5-fluoropyridin-2-yl)ethyl]-4-N-(3-propan-2-yloxy-1H-pyrazol-5-yl)pyrimidine-2,4-diamine]
BaF3-tel/trkB cells
  GI50: 3.3 nM
BaF3-tel/trkC cells; read-out: IC50, Table 9
  GI50: 2.2 nM

## COC(=O)[C@@]1(O)C[C@H]2O[C@]1(C)n1c3ccccc3c3c4c(c5c6ccccc6n2c5c31)C(=O)NC4 [Compound K252a, 9,12-Epoxy-1H-diindolo[1,2,3-fg:3′,2′,1′-kl]pyrrolo[3,4-i][1,6]benzodiazocine-10-carboxylic acid, 2,3,9,10,11,12-hexahydro-10-hydroxy-9-methyl-1-oxo-, methyl ester, (9S,10R,12R)-]
BaF3-tel/trkB cells
  GI50: 45.3 nM
BaF3-tel/trkC cells; [10]
  GI50: 14.3 nM

## Cc1cc(Nc2ncc(Cl)c(Nc3ccccc3S(=O)(=O)C(C)C)n2)c(OC(C)C)cc1C1CCNCC1 [ceritinib, 5-chloro-2-N-(5-methyl-4-piperidin-4-yl-2-propan-2-yloxyphenyl)-4-N-(2-propan-2-ylsulfonylphenyl)pyrimidine-2,4-diamine]
[1]; [8]
  IC50: > 1 µM
[2]; [9]
  IC50: > 1 µM
BaF3-tel/trkA_WT cells; [11]
  GI50: > 1 µM
[5]; [11]
  GI50: > 1 µM
[3]; Homo sapiens, KM12
  IC50: 269 nM

## COC[C@@H](C)Nc1cc(N2CCN(C)CC2)ccc1C(=O)Nc1n[nH]c2ccc(S(=O)(=O)c3cc(F)cc(F)c3)cc12 [Compound 2, N-[5-(3,5-difluoro-benzenesulfonyl)-1H-indazol-3-yl]-2-((R)-2-methoxy-1-methyl-ethylamino)-4-(4-methyl-piperazin-1-yl) benzamide]
[1]; KM12-TPM3/trkA_G667C, Table 8, cells without unit, read-out: IC50
  IC50: 0.466 µM
[2]; KM12-TPM3/trkA_G595R, Table 8, cells without unit, read-out: IC50
  IC50: 0.424 µM
BaF3-tel/trkA_WT cells; [12]
  GI50: 0.0023 µM
[5]; [12]
  GI50: 0.846 µM
[4]
  inhibitory activity against mutant cells: significant inhibitory activity
[3]; KM12-TPM3/trkA_WT, Table 8, cells without unit
  IC50: 6.1 nM

## C[C@@H](Oc1cc(-c2cnn(C3CCNCC3)c2)cnc1N)c1c(Cl)ccc(F)c1Cl [crizotinib, (R)-3-[1-(2,6-Dichloro-3-fluorophenyl)ethoxy]-5-[1-(piperidin-4-yl)-1H-pyrazol-4-yl]pyridin-2-amine]
[1]; [8]
  IC50: > 1 µM
[2]; [9]
  IC50: > 1 µM
BaF3-tel/trkA_WT cells; [12]
  GI50: 0.179 µM
[5]; [12]
  GI50: 0.433 µM
[3]; Homo sapiens, KM12
  IC50: 76.6 nM

Source: patent US20180177792A1, “COMPOSITIONS AND METHODS FOR TREATING PATIENTS WITH RTK MUTANT CELLS” (IGNYTA, INC., priority 2015, published 2018)
